Here are results for 3 compounds from US10137199B2, “Thiolated hyaluronan-based hydrogels cross-linked using oxidized glutathione” (BioTime, Inc., priority 2013, dated 2018).

Series [1] can be described thus: Gel formation of CMHA-S and Gelin-S with disulfide containing small molecules. Format: physicochemical. As to conditions: thiolated biopolymers CMHA-S and Gelin-S. As for the experimental part:
Initially we tested whether GSSG would be a suitable reactant for a thiol-disulfide exchange reaction with thiolated biopolymers CMHA-S and Gelin-S to form a two-component (CMHA/Gelin/GSSG) gel with no additional crosslinking molecule (FIG. 1 where R′—SH represents Gelin-S). A gel formed in approximately three minutes using a final concentration of 4 mM GSSG and 0.4% w/v CMHA-S and 0.4% w/v Gelin-S (Sample 4, Table 1).

Another series relates to ADSC. The series can be described thus: Cell attachment on peptide functionalized CMHA/GSSG hydrogels, ADSC. Format: cell-based, human. To be noted: 15,000 cells/well, attach overnight, calcein AM. As for the experimental part: After N-terminal maleimido-tagged peptides (Anaspec, Inc. Fremont, CCA) were resuspended in 1×PBS, 1 volume 10 mM peptide was mixed with nine volumes CMHA-S, and reaction was allowed to occur at room temperature in the dark, overnight. GSSG was added to a final concentration of 4 mM (brings peptide final concentration to 0.88 mM) and the mixture allowed to form gels in a 48-well multiwell plate. Unreacted peptides were removed by three washes of at least five volumes 1×PBS at 75 rpm 37° C., for at least 4 hr each. ADSC or BM-MSC in DMEM/10% FBS were then added to each well (15,000 cells/well in a 48 well plate) and allowed to attach overnight. On the final day, the cells were imaged by fluorescence using calcein AM stain.

For `OC1CSSCC1O` (stereo not drawn) [oxidized DT], the gel formation entry in series [1] is listed as “did not cause gel formation”.

For the compound CRGDS, the ADSC attachment entry with ADSC was “poor robustness”.

On to `N[C@@H](CS)C(=O)O` [cysteine], for which the gel formation entry in series [1] is reported as “did not cause gel formation”.
